What was measured:
Conditions in all cases: exposure time: 72 h
[1] = test system: E31 (patient-derived glioblastoma stem cells of proneural subtype); test: surviving fraction (nuclei count normalised to DMSO); higher = more cells surviving (less toxic)
[2] = test system: E21 (patient-derived glioblastoma stem cells of mesenchymal subtype); test: as above
[3] = test system: E13 (patient-derived glioblastoma stem cells of classical subtype); test: as above
[4] = test system: E28 (patient-derived glioblastoma stem cells of classical subtype); test: as above
[5] = test system: FT3469 (normal neural stem cell line); test: as above
[6] = test system: E34 (patient-derived glioblastoma stem cells of proneural subtype); test: as above
[7] = test system: E57 (patient-derived glioblastoma stem cells of mesenchymal subtype); test: as above
[8] = test system: E31; test: phenotypic distance (Euclidean, principal components) from DMSO controls (arbitrary units); higher = stronger morphological change
[9] = test system: E21; test: as above
[10] = test system: E13; test: as above
[11] = test system: E28; test: as above
[12] = test system: FT3469; test: as above
[13] = test system: E34; test: as above
[14] = test system: E57; test: as above
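Throughout, for phenotypic distance (Euclidean, principal components) from DMSO controls: cell Painting imaging in 384-well plates, CellProfiler features reduced to at least 20 principal components, Euclidean distance versus same-plate DMSO vehicle wells (0.1% v/v), median over six images per well.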
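Throughout, for surviving fraction (nuclei count normalised to DMSO): nuclei counted by high-content imaging of Hoechst-stained cells in laminin-coated 384-well plates, relative to 0.1% DMSO vehicle wells, with staurosporine as cell-death control.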

COc1c(N2CCNC(C)C2)c(F)cc2c(=O)c(C(=O)O)cn(C3CC3)c12 (stereo not drawn) [Gatifloxacin]
Conditions | phenotypic distance | surviving fraction
[1], 4.1 nM | – | 1.03
[1], 12.3 nM | – | 0.99
[1], 37 nM | – | 0.946
[1], 111.1 nM | – | 0.898
[1], 333.3 nM | – | 1.01
[1], 1000 nM | – | 1.04
[1], 3000 nM | – | 1.24
[2], 4.1 nM | – | 0.949
[2], 12.3 nM | – | 0.874
[2], 37 nM | – | 0.875
[2], 111.1 nM | – | 0.802
[2], 333.3 nM | – | 0.988
[2], 1000 nM | – | 0.814
[2], 3000 nM | – | 0.929
[3], 4.1 nM | – | 0.802
[3], 12.3 nM | – | 0.892
[3], 37 nM | – | 0.946
[3], 111.1 nM | – | 0.909
[3], 333.3 nM | – | 1.06
[3], 1000 nM | – | 0.806
[3], 3000 nM | – | 0.89
[4], 4.1 nM | – | 0.883
[4], 12.3 nM | – | 0.852
[4], 37 nM | – | 0.951
[4], 111.1 nM | – | 0.859
[4], 333.3 nM | – | 0.769
[4], 1000 nM | – | 0.982
[4], 3000 nM | – | 1.01
[5], 4.1 nM | – | 0.737
[5], 12.3 nM | – | 0.928
[5], 37 nM | – | 0.867
[5], 111.1 nM | – | 0.774
[5], 333.3 nM | – | 0.957
[5], 1000 nM | – | 0.995
[5], 3000 nM | – | 0.79
[6], 4.1 nM | – | 0.932
[6], 12.3 nM | – | 0.945
[6], 37 nM | – | 1.06
[6], 111.1 nM | – | 0.967
[6], 333.3 nM | – | 1.09
[6], 1000 nM | – | 0.908
[6], 3000 nM | – | 0.955
[7], 4.1 nM | – | 0.966
[7], 12.3 nM | – | 1.04
[7], 37 nM | – | 0.993
[7], 111.1 nM | – | 1.05
[7], 333.3 nM | – | 1.06
[7], 1000 nM | – | 1.05
[7], 3000 nM | – | 1.05
[8], 4.1 nM | 0.659 | –
[8], 12.3 nM | 2.43 | –
[8], 37 nM | 0.809 | –
[8], 111.1 nM | 0.741 | –
[8], 333.3 nM | 0.52 | –
[8], 1000 nM | 0.474 | –
[8], 3000 nM | 0.691 | –
[9], 4.1 nM | 1 | –
[9], 12.3 nM | 0.609 | –
[9], 37 nM | 0.741 | –
[9], 111.1 nM | 0.873 | –
[9], 333.3 nM | 0.581 | –
[9], 1000 nM | 1 | –
[9], 3000 nM | 0.84 | –
[10], 4.1 nM | 0.675 | –
[10], 12.3 nM | 0.638 | –
[10], 37 nM | 0.734 | –
[10], 111.1 nM | 0.5 | –
[10], 333.3 nM | 0.838 | –
[10], 1000 nM | 0.825 | –
[10], 3000 nM | 0.702 | –
[11], 4.1 nM | 0.347 | –
[11], 12.3 nM | 0.661 | –
[11], 37 nM | 0.66 | –
[11], 111.1 nM | 0.527 | –
[11], 333.3 nM | 0.675 | –
[11], 1000 nM | 0.514 | –
[11], 3000 nM | 0.819 | –
[12], 4.1 nM | 1.03 | –
[12], 12.3 nM | 0.624 | –
[12], 37 nM | 0.658 | –
[12], 111.1 nM | 0.568 | –
[12], 333.3 nM | 0.713 | –
[12], 1000 nM | 0.561 | –
[12], 3000 nM | 1.24 | –
[13], 4.1 nM | 0.671 | –
[13], 12.3 nM | 0.619 | –
[13], 37 nM | 0.973 | –
[13], 111.1 nM | 0.498 | –
[13], 333.3 nM | 0.426 | –
[13], 1000 nM | 0.62 | –
[13], 3000 nM | 0.52 | –
[14], 4.1 nM | 0.413 | –
[14], 12.3 nM | 0.404 | –
[14], 37 nM | 0.488 | –
[14], 111.1 nM | 0.447 | –
[14], 333.3 nM | 0.584 | –
[14], 1000 nM | 0.465 | –
[14], 3000 nM | 0.475 | –

Source: the supplement of paper PMC13207355
